According to the NIST ThermoML archive (doi:10.1016/j.tca.2008.05.002):
± gives the expanded uncertainty stated by the source.

Assay: molar heat capacity at saturation pressure
Details: Crystal 4, Small (less than 1 g) adiabatic calorimetry

## CCCCn1cc[n+](C)c1.O=[N+]([O-])[O-] [1-butyl-3-methylimidazolium nitrate]
5.05 K
  molar heat capacity: 0.5514 ± 0.032 J/K/mol
5.29 K
  molar heat capacity: 0.65 ± 0.032 J/K/mol
5.54 K
  molar heat capacity: 0.7586 ± 0.034 J/K/mol
5.8 K
  molar heat capacity: 0.8834 ± 0.036 J/K/mol
6.06 K
  molar heat capacity: 1.024 ± 0.04 J/K/mol
6.36 K
  molar heat capacity: 1.195 ± 0.042 J/K/mol
6.69 K
  molar heat capacity: 1.409 ± 0.046 J/K/mol
7.03 K
  molar heat capacity: 1.636 ± 0.04 J/K/mol
7.37 K
  molar heat capacity: 1.896 ± 0.054 J/K/mol
7.72 K
  molar heat capacity: 2.169 ± 0.058 J/K/mol
8.08 K
  molar heat capacity: 2.473 ± 0.064 J/K/mol
8.44 K
  molar heat capacity: 2.803 ± 0.068 J/K/mol
8.8 K
  molar heat capacity: 3.145 ± 0.074 J/K/mol
9.16 K
  molar heat capacity: 3.525 ± 0.08 J/K/mol
9.53 K
  molar heat capacity: 3.922 ± 0.087 J/K/mol
9.91 K
  molar heat capacity: 4.346 ± 0.093 J/K/mol
10.39 K
  molar heat capacity: 4.934 ± 0.1 J/K/mol
10.97 K
  molar heat capacity: 5.66 ± 0.11 J/K/mol
11.56 K
  molar heat capacity: 6.445 ± 0.12 J/K/mol
12.15 K
  molar heat capacity: 7.288 ± 0.13 J/K/mol
12.75 K
  molar heat capacity: 8.194 ± 0.14 J/K/mol
13.35 K
  molar heat capacity: 9.123 ± 0.16 J/K/mol
13.96 K
  molar heat capacity: 10.11 ± 0.17 J/K/mol
14.57 K
  molar heat capacity: 11.12 ± 0.18 J/K/mol
15.18 K
  molar heat capacity: 12.21 ± 0.19 J/K/mol
15.91 K
  molar heat capacity: 13.62 ± 0.21 J/K/mol
16.74 K
  molar heat capacity: 15.21 ± 0.23 J/K/mol
17.58 K
  molar heat capacity: 16.85 ± 0.24 J/K/mol
18.42 K
  molar heat capacity: 18.5 ± 0.26 J/K/mol
19.27 K
  molar heat capacity: 20.2 ± 0.26 J/K/mol
20.12 K
  molar heat capacity: 21.95 ± 0.28 J/K/mol
21.25 K
  molar heat capacity: 24.37 ± 0.3 J/K/mol
22.68 K
  molar heat capacity: 27.47 ± 0.32 J/K/mol
24.11 K
  molar heat capacity: 30.69 ± 0.34 J/K/mol
25.54 K
  molar heat capacity: 33.91 ± 0.36 J/K/mol
26.98 K
  molar heat capacity: 37.09 ± 0.36 J/K/mol
28.44 K
  molar heat capacity: 40.37 ± 0.36 J/K/mol
29.9 K
  molar heat capacity: 43.58 ± 0.38 J/K/mol
31.35 K
  molar heat capacity: 46.78 ± 0.34 J/K/mol
32.99 K
  molar heat capacity: 50.29 ± 0.36 J/K/mol
34.79 K
  molar heat capacity: 54.05 ± 0.38 J/K/mol
36.58 K
  molar heat capacity: 57.69 ± 0.38 J/K/mol
38.37 K
  molar heat capacity: 61.25 ± 0.4 J/K/mol
40.17 K
  molar heat capacity: 64.77 ± 0.42 J/K/mol
42.06 K
  molar heat capacity: 68.4 ± 0.44 J/K/mol
44.07 K
  molar heat capacity: 72.18 ± 0.46 J/K/mol
46.09 K
  molar heat capacity: 75.84 ± 0.48 J/K/mol
48.1 K
  molar heat capacity: 79.42 ± 0.5 J/K/mol
50.1 K
  molar heat capacity: 82.76 ± 0.52 J/K/mol
52.11 K
  molar heat capacity: 86.06 ± 0.52 J/K/mol
54.13 K
  molar heat capacity: 89.28 ± 0.54 J/K/mol
56.14 K
  molar heat capacity: 92.32 ± 0.56 J/K/mol
58.16 K
  molar heat capacity: 95.28 ± 0.58 J/K/mol
60.19 K
  molar heat capacity: 98.2 ± 0.58 J/K/mol
62.22 K
  molar heat capacity: 101.03 ± 0.6 J/K/mol
64.26 K
  molar heat capacity: 103.75 ± 0.62 J/K/mol
66.29 K
  molar heat capacity: 106.43 ± 0.62 J/K/mol
68.34 K
  molar heat capacity: 109.04 ± 0.64 J/K/mol
70.38 K
  molar heat capacity: 111.5 ± 0.66 J/K/mol
72.42 K
  molar heat capacity: 113.97 ± 0.66 J/K/mol
74.46 K
  molar heat capacity: 116.39 ± 0.68 J/K/mol
76.5 K
  molar heat capacity: 118.68 ± 0.68 J/K/mol
78.55 K
  molar heat capacity: 120.96 ± 0.7 J/K/mol
80.3 K
  molar heat capacity: 122.59 ± 0.7 J/K/mol
80.56 K
  molar heat capacity: 122.99 ± 0.72 J/K/mol
80.61 K
  molar heat capacity: 123.11 ± 0.72 J/K/mol
82.15 K
  molar heat capacity: 124.42 ± 0.72 J/K/mol
82.41 K
  molar heat capacity: 124.84 ± 0.72 J/K/mol
82.67 K
  molar heat capacity: 125.14 ± 0.72 J/K/mol
84.01 K
  molar heat capacity: 126.23 ± 0.72 J/K/mol
84.27 K
  molar heat capacity: 126.67 ± 0.72 J/K/mol
84.72 K
  molar heat capacity: 127.15 ± 0.74 J/K/mol
85.89 K
  molar heat capacity: 128.02 ± 0.74 J/K/mol
86.14 K
  molar heat capacity: 128.46 ± 0.74 J/K/mol
87.78 K
  molar heat capacity: 129.91 ± 0.74 J/K/mol
88.03 K
  molar heat capacity: 130.27 ± 0.74 J/K/mol
89.67 K
  molar heat capacity: 131.68 ± 0.76 J/K/mol
89.92 K
  molar heat capacity: 132.02 ± 0.76 J/K/mol
91.58 K
  molar heat capacity: 133.45 ± 0.72 J/K/mol
91.83 K
  molar heat capacity: 133.79 ± 0.74 J/K/mol
93.5 K
  molar heat capacity: 135.16 ± 0.74 J/K/mol
93.75 K
  molar heat capacity: 135.5 ± 0.74 J/K/mol
95.43 K
  molar heat capacity: 136.91 ± 0.74 J/K/mol
95.68 K
  molar heat capacity: 137.25 ± 0.74 J/K/mol
97.36 K
  molar heat capacity: 138.62 ± 0.76 J/K/mol
97.62 K
  molar heat capacity: 138.98 ± 0.76 J/K/mol
99.3 K
  molar heat capacity: 140.37 ± 0.76 J/K/mol
99.56 K
  molar heat capacity: 140.68 ± 0.76 J/K/mol
101.25 K
  molar heat capacity: 142.08 ± 0.76 J/K/mol
102.25 K
  molar heat capacity: 142.93 ± 0.76 J/K/mol
103.21 K
  molar heat capacity: 143.75 ± 0.78 J/K/mol
104.22 K
  molar heat capacity: 144.6 ± 0.78 J/K/mol
105.18 K
  molar heat capacity: 145.34 ± 0.78 J/K/mol
106.19 K
  molar heat capacity: 146.25 ± 0.78 J/K/mol
107.15 K
  molar heat capacity: 146.93 ± 0.78 J/K/mol
108.17 K
  molar heat capacity: 147.88 ± 0.78 J/K/mol
109.13 K
  molar heat capacity: 148.52 ± 0.78 J/K/mol
110.16 K
  molar heat capacity: 149.43 ± 0.8 J/K/mol
111.11 K
  molar heat capacity: 150.07 ± 0.8 J/K/mol
112.15 K
  molar heat capacity: 150.98 ± 0.8 J/K/mol
113.1 K
  molar heat capacity: 151.62 ± 0.8 J/K/mol
114.14 K
  molar heat capacity: 152.51 ± 0.8 J/K/mol
115.1 K
  molar heat capacity: 153.15 ± 0.8 J/K/mol
116.14 K
  molar heat capacity: 154.02 ± 0.83 J/K/mol
